The values below come from patent US20240317816A1, “PEPTIDES FOR IMMUNOTHERAPY” (Genevive, Inc., priority 2021, published 2024).

For assay [1], the system named is moDCs and allogeneic T cells. Nature of the assay: Mixed lymphocyte reaction (MLR) cytokine release. In kind it is cell-based. The method, then:
Twenty-four hours later, T cells isolated from allogeneic donors were added to the moDCs with the peptide of interest, SG-3-00802 or SG-3-05021, alone or in combination with anti-PD-L1 monoclonal antibody. The co-culture of cells was incubated for 72 hours, after which cell supernatants were harvested and analyzed for secretion of cytokines, IFN-g and TNF-α. […] Data shown for experiment conducted in >4 Donor PBMCs.

For assay [2], the system named is Chemokine receptors. Nature of the assay: LRC-TriCEPS LC-MS/MS identification of binding partners. The following applies: living cells, LRC-TriCEPS crosslinker. The method, then:
SG-3-00802 binding partners were identified using the mass spectrometry-based proteomics (LC MS/MS)-based LRC-TriCEPS™ technology from DualSystems. To enrich for binding partners the ligand was coupled with the LRC-TriCEPS™ crosslinker and incubated with living cells that expressed target receptors. The enriched proteins were purified and processed for analysis by LC-MS/MS. A parallel experiment using transferrin as control ligand enabled the relative quantification of the enriched proteins. Putative binding partners of SG-3-00802 enriched over transferrin ligand are depicted in a volcano plot (FIG. 3).

Turning to “LGKTDWIEKYFKVKKEKIDKMQRFLQG (peptide for immunotherapy; SG-3-05021)”, the IFN-γ secretion result in assay [1] (after stimulation with anti-CD40, in combination with anti-PD-L1, 72 hours) is listed as “increase in IFN-γ”; in assay [1] (after stimulation with anti-CD40, peptide alone, 72 hours) it was “increase in IFN-γ”. With “MKVRPSVKPMCEKCKIIRRKGRVMVICENPKHKQRQG [SG-3-00802]”, the “binding partners enriched over transferrin ligand” value in assay [2] is on record as “Chemokine receptors”.
